Experimental data: patent US20110288086A1, “POLYCYCLIC QUINAZOLINES, PREPARATION THEREOF, AND USE THEREOF” (priority 2010, published 2011)
Counter-ions that a name gives are not always drawn.

Experiments:
aurora kinase B = biological target: T1, aurora kinase B (Homo sapiens, UniProt Q96GD4); test: Aurora kinase B inhibition in vitro (Invitrogen aurora kinase screening kit PV3174); type: biochemical
T1 construct: purchased Invitrogen PV3174

[1] = test system: K562 human chronicity marrow leukemic cells; test: Tumor cell inhibition ratio, CCK-8 kit, K562; conditions: K562, read-out: Antiproliferative effect (inhibition ratio) K562
Source text: (§1) The inhibitory activities of the compounds on tumor cells in vitro

[2] = test system: A549 human lung cancer cells; test: Tumor cell inhibition ratio, CCK-8 kit, A549; conditions: A549, read-out: Antiproliferative effect (inhibition ratio) A549
Source text: as §1

[3] = test system: PC-3 human carcinoma of prostate; test: Tumor cell inhibition ratio, CCK-8 kit, PC-3; conditions: read-out: Antiproliferative effect (inhibition ratio) PC-3
Source text: as §1

[4] = test system: Hut78 T-Lymphocytic Leukemia cells; test: Tumor cell inhibition ratio, CCK-8 kit, Hut78; conditions: Homo sapiens, HuT78, read-out: Antiproliferative effect (inhibition ratio) Hut-78
Source text: as §1

[5] = test system: Hep3B2.1-7 human hepatoma carcinoma cells; test: Tumor cell inhibition ratio, CCK-8 kit, Hep3B; conditions: read-out: Antiproliferative effect (inhibition ratio) Hep3B
Source text: as §1

[6] = test system: PANC-1 human pancreatic cancer cells; test: Tumor cell inhibition ratio, CCK-8 kit, PANC-1; conditions: PANC-1, read-out: Antiproliferative effect (inhibition ratio) PANC-1
Source text: as §1

[7] = test system: Colo320 human rectal cancer cells; test: Tumor cell inhibition ratio, CCK-8 kit, Colo320; conditions: COLO 320, read-out: Antiproliferative effect (inhibition ratio) Colo320
Source text: as §1

[8] = test system: Jurkat E6-1 human T-cell lymphoma; test: Tumor cell inhibition ratio, CCK-8 kit, Jurkat E6-1; conditions: Jurkat E6.1, read-out: Antiproliferative effect (inhibition ratio) E6-1
Source text: as §1

[9] = test system: MDA-MB-435s human breast carcinoma cells; test: Tumor cell inhibition ratio, CCK-8 kit, MDA-MB-435s; conditions: read-out: Antiproliferative effect (inhibition ratio) 435s
Source text: as §1

EGFR tyrosine kinase = EGFR tyrosine kinase (Homo sapiens, UniProt P00533); test: EGFR tyrosine kinase inhibition in vitro (Invitrogen EGFR inhibitor screening kit PV3193)
Sequence of EGFR tyrosine kinase (P00533 25-1210): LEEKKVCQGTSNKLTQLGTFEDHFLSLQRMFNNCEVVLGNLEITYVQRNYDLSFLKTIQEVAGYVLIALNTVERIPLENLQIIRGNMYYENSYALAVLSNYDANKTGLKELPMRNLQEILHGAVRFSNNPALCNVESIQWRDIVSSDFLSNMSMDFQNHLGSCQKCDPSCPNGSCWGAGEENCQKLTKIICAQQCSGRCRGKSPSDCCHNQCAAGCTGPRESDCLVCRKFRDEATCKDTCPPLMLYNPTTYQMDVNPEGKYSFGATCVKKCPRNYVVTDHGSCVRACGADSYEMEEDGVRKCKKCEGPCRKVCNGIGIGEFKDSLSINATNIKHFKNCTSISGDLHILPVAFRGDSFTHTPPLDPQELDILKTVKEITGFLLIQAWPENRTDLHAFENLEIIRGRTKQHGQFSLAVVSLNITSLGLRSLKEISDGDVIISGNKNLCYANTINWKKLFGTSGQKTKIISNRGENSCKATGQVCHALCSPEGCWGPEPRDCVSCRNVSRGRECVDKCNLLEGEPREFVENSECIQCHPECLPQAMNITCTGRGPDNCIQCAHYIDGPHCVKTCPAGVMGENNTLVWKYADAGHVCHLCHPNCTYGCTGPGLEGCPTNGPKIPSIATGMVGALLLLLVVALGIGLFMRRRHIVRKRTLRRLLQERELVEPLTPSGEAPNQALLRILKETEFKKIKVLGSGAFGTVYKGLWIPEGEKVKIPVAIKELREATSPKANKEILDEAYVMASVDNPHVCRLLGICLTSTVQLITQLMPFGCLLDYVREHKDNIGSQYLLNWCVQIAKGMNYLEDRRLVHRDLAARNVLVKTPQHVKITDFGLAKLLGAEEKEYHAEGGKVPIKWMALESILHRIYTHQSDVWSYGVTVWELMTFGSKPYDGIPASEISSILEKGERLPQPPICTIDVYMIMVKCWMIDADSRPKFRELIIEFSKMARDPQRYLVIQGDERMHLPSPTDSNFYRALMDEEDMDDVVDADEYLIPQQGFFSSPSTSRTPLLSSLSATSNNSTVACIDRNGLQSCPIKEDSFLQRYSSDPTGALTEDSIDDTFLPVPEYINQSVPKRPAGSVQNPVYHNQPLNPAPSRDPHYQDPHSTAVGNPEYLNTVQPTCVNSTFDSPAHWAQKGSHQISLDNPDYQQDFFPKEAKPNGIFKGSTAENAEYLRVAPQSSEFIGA
Source text: The inhibitory activities of EGFR tyrosine kinase in vitro
Erlotinib hydrochloride was used as a positive control drug.

T1 sequence (Q96GD4 whole entry): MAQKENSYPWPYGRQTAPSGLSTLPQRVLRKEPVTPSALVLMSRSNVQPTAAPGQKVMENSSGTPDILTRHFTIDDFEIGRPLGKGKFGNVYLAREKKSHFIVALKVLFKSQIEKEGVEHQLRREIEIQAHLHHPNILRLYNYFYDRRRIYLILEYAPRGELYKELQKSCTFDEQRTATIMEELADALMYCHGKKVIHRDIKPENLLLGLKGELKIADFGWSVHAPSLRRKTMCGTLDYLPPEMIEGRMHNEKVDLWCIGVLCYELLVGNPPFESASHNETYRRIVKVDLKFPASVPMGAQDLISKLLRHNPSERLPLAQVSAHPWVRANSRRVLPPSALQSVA

SMILES	The inhibition ratio of the compound on Aurora B(%) (aurora kinase B; 40 μM)	The inhibition ratio of the compound on Aurora B(%) (aurora kinase B; 200 μM)	inhibition at 10 µM [1] [%]	inhibition at 100 µM [1] [%]	inhibition at 10 µM [2] [%]	inhibition at 100 µM [2] [%]	inhibition at 10 µM [3] [%]	inhibition at 100 µM [3] [%]	inhibition at 10 µM [4] [%]	inhibition at 100 µM [4] [%]	inhibition at 10 µM [5] [%]	inhibition at 100 µM [5] [%]	inhibition at 10 µM [6] [%]	inhibition at 100 µM [6] [%]	inhibition at 10 µM [7] [%]	inhibition at 100 µM [7] [%]	inhibition at 10 µM [8] [%]	inhibition at 100 µM [8] [%]	The inhibition ratio of the compound on EGFR(%) (EGFR tyrosine kinase; 40 μM)	The inhibition ratio of the compound on EGFR(%) (EGFR tyrosine kinase; 200 μM)	other results
COCCOc1cc2c(cc1OCCOC)C1=Nc3cccc(Cl)c3CN1C=N2.Cl [Compound V-1, 9-chloro-2,3-bis(2-methoxyethoxy)-8H-quinazolino[4,3-b]quinazoline hydrochloride monohydrate]	47.6	88.6	40.7	87	40.5	81.4	51.6	62.4	16.1	64.5	50.4	89.3	35.7	78.1	55.1	81	55	81.7	57.6	91.5	inhibition at 10 µM [9]: 60.9%; inhibition at 100 µM [9]: 91.2%
COCCOc1cc2c(cc1OCCOC)C1=Nc3cccc(F)c3CN1C=N2 [Compound V-3, 9-fluoro-2,3-bis(2-methoxyethoxy)-8H-quinazolino[4,3-b]quinazoline mesylate]	39.5	83.6	43.1	88.8	44.6	76.2	34	87	44.1	84.1	42.3	80.7	30.9	75.4	34.8	79	42	78	49.5	81.6	inhibition at 10 µM [9]: 3.38%; inhibition at 100 µM [9]: 84.1%
COCCOc1cc2c(cc1OCCOC)C1=Nc3cccc(NC(=O)c4ccccc4)c3CN1C=N2 [Compound V-12, N-{2,3-bis(2-methoxyethoxy)-8H-quinazolino[4,3-b]quinazoline}benzamide]	40.1	87.9	–	–	–	–	–	–	–	–	–	–	–	–	–	–	–	–	25.8	62.7	–
COCCOc1cc2c(cc1OCCOC)C1=Nc3cc(CO)cc(N)c3CN1C=N2 [Compound V-21, 9-amino-11-hydroxymethyl-2,3-bis(2-methoxyethoxy)-8H-quinazolino[4,3-b]quinazoline]	–	–	26.9	81.6	45.3	78	27.6	62.6	10.3	52.7	21.8	86.3	52.7	89.4	31.8	87	43.5	90.3	–	–	inhibition at 10 µM [9]: 67%; inhibition at 100 µM [9]: 74.9%
COc1cc2c(cc1OCCCN1CCOCC1)C1=Nc3ccc(F)c(Cl)c3CN1C=N2 [Compound V-23, 4-(3-((9-chloro-10-fluoro-3-methoxy-8H-quinazolino[4,3-b]quinazoline-2-yl)oxy)propyl)morpholine di-p-toluenesulfonate]	–	–	58.7	73.4	10.4	22.5	30.7	97.6	42	99.8	27.1	48.7	21.5	98.8	52.3	99.5	56.3	77.5	–	–	inhibition at 10 µM [9]: 20.7%; inhibition at 100 µM [9]: 52.2%
COc1cc2c(cc1OCCCN1CCNCC1)C1=Nc3cccc(F)c3CN1C=N2 [Compound V-25, 9-fluoro-3-methoxy-2-(3-(piperazinyl-1-yl)propoxy)-8H-quinazolino[4,3-b]quinazoline]	–	–	44.1	82.8	47	79.3	53.4	64.4	19	21.9	21.3	64.7	44.2	88.6	33.5	79.2	31.1	81.3	–	–	inhibition at 10 µM [9]: 20.4%; inhibition at 100 µM [9]: 77%
C#Cc1cccc2c1CN1C=Nc3cc(OC)c(OCCCN4CCOCC4)cc3C1=N2 [Compound V-26, 4-(3-((9-ethynyl-3-methoxy-8H-quinazolino[4,3-b]quinazoline-2-yl)oxy)propyl)morpholine]	–	–	4.29	11.7	27.7	93.6	5.86	30.3	32.1	72.4	28.4	89.5	40.7	76.6	32.1	81.4	44.6	85.4	–	–	inhibition at 10 µM [9]: 38%; inhibition at 100 µM [9]: 71.4%
COc1cc2c(cc1OCCCN1CCOCC1)C1=Nc3cccc(C#N)c3CN1C=N2 [Compound V-27, 3-methoxy-2-(3-morpholinylpropoxy)-8H-quinazolino[4,3-b]quinazoline-9-nitrile]	–	–	22.4	62.2	39.8	80	25.2	84	65.6	95.9	2.44	67.3	41.8	99.8	34.5	84.8	24	75.4	–	–	inhibition at 10 µM [9]: 12%; inhibition at 100 µM [9]: 79.7%
COc1cc2c(cc1OCCCN1CCOCC1)C1=Nc3cc(COS(C)(=O)=O)cc([N+](=O)[O-])c3CN1C=N2 [Compound V-29]	11.2	78.9	–	–	–	–	–	–	–	–	–	–	–	–	–	–	–	–	35.2	86.5	–
COc1cc2c(cc1OC)C1=Nc3ccc(F)c(Cl)c3CN1C=N2 [Compound V-30, 9-chloro-10-fluoro-2,3-dimethoxy-8H-quinazolino[4,3-b]quinazoline]	46.3	79.6	–	–	–	–	–	–	–	–	–	–	–	–	–	–	–	–	27.8	82.1	–
CS(=O)(=O)CCNCc1ccc(-c2ccc3c(c2)C2=Nc4ccc(F)c(Cl)c4CN2C=N3)o1 [Compound V-34, N-((5-(9-chloro-10-fluoro-8H-quinazolino[4,3-b]quinazoline-2-yl)furan-2-yl)methyl)-2-(methylsulfonyl)ethylamine]	17.8	92.6	–	–	–	–	–	–	–	–	–	–	–	–	–	–	–	–	21.6	72.6	–
C#Cc1cccc2c1CN1C=Nc3ccc(-c4ccc(CNCCS(C)(=O)=O)o4)cc3C1=N2 [Compound V-35, N-((5-(9-ethynyl-8H-quinazolino[4,3-b]quinazoline-2-yl)furan-2-yl)methyl)-2-(methylsulfonyl)ethylamine]	3.3	79.8	–	–	–	–	–	–	–	–	–	–	–	–	–	–	–	–	13.3	75.8	–
CS(=O)(=O)CCNCc1ccc(-c2ccc3c(c2)C2=Nc4cc(Cl)ccc4CN2C=N3)o1 [Compound V-36, N-((5-(11-chloro-8H-quinazolino[4,3-b]quinazoline-2-yl)furan-2-yl)methyl)-2-(methylsulfonyl)ethylamine]	52.6	97.9	–	–	–	–	–	–	–	–	–	–	–	–	–	–	–	–	55.6	87.9	–
Cc1cc(Nc2cc(N3CCN(C)CC3)nc(Sc3ccc(NC(=O)C4CC4)cc3)n2)n[nH]1 [VX-680, reference compound]	35.2	81.6	–	–	–	–	–	–	–	–	–	–	–	–	–	–	–	–	–	–	–
